Measurements taken from patent US20220304957A1, “ANTI-CANCER COMPOSITIONS AND METHODS OF USE” (Board of Supervisors of Louisiana State University and …, priority 2019, published 2022).

Key:
Water solubility (HPLC) = assay type: physicochemical; settings: room temperature, sonicated one hour
Method: Aliquots of 50 μM PP1 and FF in DMSO were added to 500 μl to heparinized human blood to a final concentration of 50 μM. Following incubation at 37° C. for the indicated time points, the samples were frozen at −80° C., and later prepared for HPLC-based detection of the compounds. Please note that FF is converted to FA in the presence of human blood. […] Data represent average values with standard deviation (n=3). panel B: Water solubility. FF and PP1, were added to water to a final concentration of 50 mM and sonicated in an ultrasonic bath (Branson 1510 Digital Heated Ultrasonic bath) for one hour at room temperature. The samples were then centrifuged for 10 minutes at 16000×g, and the supernatant filtered through 0.45 μm syringe filter. Water solubilized PP1 and FF were subsequently processed for HPLC analysis (see Methods). Data represent average values with standard deviation (n=3). panel C: Effects of PP compounds on PPAR responsive elements (PPRE). The PPAR transcriptional activity was determined in HepG2 cells by the JsTkpGL3 reporter plasmid, which contains a firefly luciferase gene driven by the PPRE, which consists of three copies of the J site from the apo-AII gene promoter. […] The luciferase activity was detected with Dual-Luciferase reporter assay system (Promega, Madison, Wis.), and the resulting luminescence measured with Synergy 2 microplate reader (BioTek, Winooski, Vt.). […]

[1] = Toxicity in mice: body weight and histopathology; assay type: in vivo, C57BL/6 mice; settings: 14 days
Method: Panel A: PP1 accumulation in different tissues following oral administration of PP1 (25 mg/kg). C57BL/6 mice were treated daily for 14 days, and the levels of PP1 in the blood, liver, spleen, kidney, heart, brain and in brain tumors, were evaluated by HPLC, as previously described. Data represent average values with standard deviation (n=3). Panel B: Body weight of C57BL/6 mice treated with PP1. Mice were treated with the PP1 at doses ranging from 25 to 75 mg/kg/day administered by oral gavage. Following 7 and 14 days of daily drug administration both control (DMSO-treated) and experimental (PP1-treated) mice were weighted. Data represent average values with standard deviation (at least three mice per group were included). In Panels A and B, tumor free and tumor bearing mice were included for the body weight measurement. Panels C, D and E: Intracranial growth of GL-261-Luc cells. C57 black mice, 6-8 weeks of age were anesthetized with 4% isoflurane and secured in a stereotaxic head frame (Harvard Apparatus, Holliston Mass.). GL-261-luc cells (1×10^5 cells in 2 μl; PerkinElmer Inc.) were injected into the brain parenchyma (coordinates: 3 mm anterior to Bregma; 1.5 mm lateral to Sagital suture; 3 mm down from surface) through a burr hole in the skull using a 10 μl Hamilton syringe. Panel C: Mice with large intracranial tumors were selected using bioluminescence imaging with Xenogen IVIS 200 system. Tumor size is expressed as radiance (photons/s/cm2/sr) and was quantified with the Living Image 4.1 software according to the manufacturer's recommendations (Xenogen). Panels D and E: Pathological evaluation of intracranial tumors and tissues. Following 14 days of drug administration (control: DMSO administered daily by oral gavage; PP1 50 mg/kg administered daily by oral gavage) the animals were euthanized, and the following organs were collected: liver, kidneys, spleen, heart, intact brain and intracranial tumors. The tissues were formalin-fixed, paraffin-embedded, and the resulting thin section were stained with hematoxylin and eosin (H&E) for a routine pathological evaluation.
Animal studies—All described procedures involving experimental animals were performed in accordance to the IACUC protocol #3444 at LSUHSC, New Orleans. C57BL/6NHsd mice, 11-12 weeks of age (Envigo), were anesthetized with 4% isoflurane and secured in a stereotaxic head frame (Harvard Apparatus, Holliston Mass.). […] The resulting images were evaluated and luminescence measurements from equivalent regions of interest encompassing the entire skull were collected using Living Image 4.1 software (Xenogen). […]

[2] = system: LN229 human glioblastoma cell line; test: Cell viability (MTT assay), LN229; assay type: cell-based; settings: MTT

## CN(CCO)C(=O)C(C)(C)Oc1ccc(C(=O)c2ccc(Cl)cc2)cc1 [PP1, 2-[4-(4-chlorobenzoyl)phenoxy]-N-(2-hydroxyethyl)-N,2-dimethylpropanamide]
Water solubility (HPLC)
  water solubility in comparison to FF: much better soluble in water
[1]; 25-75 mg/kg/day oral gavage, tumor-free and tumor bearing mice
  overall toxicity and body weight: did not show any signs of overall toxicity and maintained their body weight
[1]; oral gavage daily
  histology, heart, kidney and intact brain: did not show any signs of pathology
  histology, liver: inflammation and focal necrotic areas in the liver
  histology, spleen: enlarged spleen with accumulation of hemosiderin
[2]; 1 μM
  CV = Cell viability (% of control): 98.36±1.61 % of control
[2]; 5 μM
  CV = Cell viability (% of control): 70.03±2.04 % of control
[2]; 10 μM
  CV = Cell viability (% of control): 43.67±1.88 % of control
